Data from the NIST ThermoML archive (doi:10.1021/acs.jced.8b00678).
Several values for one entry are separate records, joined by “and”; a condition that tells them apart may be missing. Equal entries are not always repeated. Numbers after ± are expanded uncertainties.

Test: refractive index (Na D-line) (dimensionless); wn = mass fraction of the nth substance listed
Details: 298.15 K; 84.5 kPa; Liquid; Standard Abbe refractometry; w1 = 0.02

SMILES	refractive index
CCCCn1cc[n+](C)c1.F[B-](F)(F)F [1-butyl-3-methylimidazolium tetrafluoroborate] + O	1.3339 ± 0.00055 and 1.33393 ± 0.00055 and 1.33391 ± 0.00055
O=C(CO)[C@@H](O)[C@H](O)[C@H](O)CO [D-fructose] + O	1.33525 ± 0.00055
O=C[C@H](O)[C@@H](O)[C@H](O)[C@H](O)CO [D-glucose] + O	1.33529 ± 0.00055
OC[C@H]1O[C@@](CO)(O[C@H]2O[C@H](CO)[C@@H](O)[C@H](O)[C@H]2O)[C@@H](O)[C@@H]1O [D-sucrose] + O	1.33518 ± 0.00055
O=C[C@H](O)[C@@H](O)[C@@H](O)CO [L-arabinose] + O	1.33523 ± 0.00055
